Data: patent publication US11345895B2, “Induction of arterial-type of hemogenic endothelium (AHE) and enhancement of T cell production from PSCs through overexpression of ETS factors or modulating MAPK/ERK signalling pathways” (Wisconsin Alumni Research Foundation, priority 2016, dated 2022)

Tests used:
Type in all cases: cell-based, human
[1] = test system: NOTCH signaling in iETS1 hESC cultures; experiment: Hematopoiesis following ETS1 upregulation in the presence of NOTCH signaling blockade; settings: DOX-treated iETS1 hESC cultures; DAPT 10 μM, DLL4 blocking antibody 10 μg/ml
Excerpt: To confirm the role of NOTCH activation in promoting definitive hematopoiesis by ETS1, we evaluated hematopoiesis following ETS1 upregulation in the presence of NOTCH signaling inhibitor DAPT, and DLL4 neutralizing antibodies (FIG. 4E).
(§1) HB-CFCs were detected as described previously^54. HB-CFCs were detected using the semisolid colony-forming serum-free medium (CF-SFM) containing 40% ES-Cult M3120 methylcellulose (2.5% solution in IMDM, Stem Cell Technologies), 25% StemSpan™ serum-free expansion medium (SFEM, Stem Cell Technologies), 25% human endothelial serum-free medium (ESFM, Invitrogen), 10% BIT 9500 supplement (Stem Cell Technologies), GlutaMAX™ (1/100 dilution, Invitrogen), Ex-Cyte™ (1/1000 dilution, Millipore), 100 μM MTG, 50 μg/ml ascorbic acid and 20 ng/ml FGF (Peprotech). Hematopoietic CFCs were detected using serum containing H4435 MethoCult with FGF, SCF, IL-3, IL-6 and EPO (Stem Cell Technologies).
Cells were analyzed using MACSQuant Analyzer (Miltenyi Biotec) and FlowJo software (Tree star).
Notch signaling was blocked by DAPT (γ-secretase inhibitor/GSI, 10 μM, Cayman Chemicals) or DLL4 blocking antibody (10 μg/ml, Creative BioLabs)

[2] = test system: iETS1-hESCs (H1, DOX-inducible ETS1 transgene); experiment: Primitive and definitive hematopoiesis from DOX-treated iETS1-hESCs (HB-CFC, HE, T cell, RBC cultures); settings: CD43+ cells subcultured on OP9-DLL4
Protocol: To define which type of hematopoiesis is affected by ETS1 overexpression, we evaluated the effect of DOX treatment on i) hemangioblast (HB) CFCs that reflect the primitive wave of hematopoiesis^37, 38 and ii) on T lymphocytes and β-hemoglobin-producing red blood cells that reflect definitive hematopoiesis (FIG. 3A)^37, 39. […] This effect was more profound when cultures were treated with DOX from day 0 through day 3 to ensure maximum ETS1 overexpression on day 3 (FIG. 3B and FIGS. 9B-9C). […] To determine the effect of ETS1 upregulation on T cell potential, we collected CD43^+ cells from DOX+ and DOX− cultures and subcultured on OP9−DLL4 stromal cells. […]
as §1, with “Technologies). […]” for “Technologies).”

[3] = test system: DLL4+ arterial type HE from hPSCs; experiment: Arterial HE specification in hESC differentiation cultures with modulation of MAPK/ERK signaling (flow cytometry); settings: differentiation cultures treated on days 3 through day 6; LY294002 2 μM, U0126 1 μM
Protocol: (§2) To determine whether modulating MAPK/ERK signaling affects arterial specification of HE from hPSCs, we treated differentiation cultures on days 3 through day 6 with PI3K inhibitor LY294002, or MEK1 and MEK2 inhibitor U0126 (FIG. 6A).
H1 hESC line, the iETS1 H1 hESC line and the tdTomato H1 hESCs line were maintained on Matrigel™ in mTeSR1™ medium. Cells were passaged every 3-4 days using 0.5 mM EDTA in PBS. The hESC lines were differentiated on ColIV coated plate as previously described in details^26.
(§3) MAPK/ERK pathway was activated using LY294002 (2 μM, Cayman Chemicals) and was inhibited using U0126 (1 μM, Cayman Chemicals)

[4] = test system: CD235a/CD41a-CD45+ hematopoietic progenitors from hESCs; experiment: Hematopoietic progenitor production and hematopoietic CFC assay after modulation of MAPK/ERK signaling; settings: ERK pathway activated (LY294002 2 μM) or inhibited (U0126 1 μM), days 3-6
Protocol: as §2, §3

[5] = test system: T lymphoid potential of hESC cultures; experiment: T cell differentiation on OP9-DLL4 after LY294002 or U0126 treatment; settings: cultures treated with LY294002 2 μM or U0126 1 μM
Protocol: as §2
T cell differentiation of hESC-derived hematopoietic precursors was performed on the OP9−DLL4 in T cell differentiated medium consisting of α-MEM (Gibco) supplemented with 20% FBS (Hyclone), 5 ng/ml FLT3L, 5 ng/ml IL-7 and 10 ng/ml SCF (all from PeproTech) as described previously^26. […] Cultures were fed with complete media changes weekly.
as §3

C[C@H](NC(=O)Cc1cc(F)cc(F)c1)C(=O)N[C@H](C(=O)OC(C)(C)C)c1ccccc1 [DAPT]
effect of ETS1 upregulation on hematopoiesis (blood production and CFC potential) [1]: abrogated effect

C[C@H]1c2cccc(O)c2C(=O)C2=C(O)[C@]3(O)C(=O)C(C(N)=O)=C(O)[C@@H](N(C)C)[C@@H]3[C@@H](O)[C@@H]21 [DOX, doxycycline]
number of T lymphoid cells per 10^4 of CD43 cells, DOX+ versus DOX- cultures [2]: ~8 fold

N#CC(=C(/N)Sc1ccccc1N)/C(C#N)=C(\N)Sc1ccccc1N [U0126]
production of DLL4+ arterial type HE, including the DLL4+CXCR4+ fraction [3]: almost completely abrogated formation | production of multipotent CD235a/CD41a-CD45+ hematopoietic progenitors and CFC potential [4]: abrogated production | T lymphoid potential [5]: entirely abrogated
